Measured values published in patent US20240400547A1, “2,6-PIPERIDINEDIONE COMPOUND AND APPLICATION THEREOF” (MEDSHINE DISCOVERY INC., priority 2021, published 2024).
Where a name gives a salt, the structure may show the parent alone.

Legend:
[1] = test system: human B-cell lymphoma OCI-LY10 cells; assay: In vivo efficacy in SCID mouse xenograft model of human B-cell lymphoma OCI-LY10 cells; set-up: species or system SCID mice; conditions: for Tumor volume (Day 0): Day 0 (grouping, baseline); for Tumor volume (Day 0) / Tumor volume (Day 28): average, SEM in next grid line
Description: The study evaluates the antitumor effect of the test compounds using a SID mouse xenograft model of human B-cell lymphoma OCI-LY10 cells.
• 1. Experimental animals: SCID mice, female, 6 to 8 weeks old, weighing 17 to 20 g. Beijing Vital River Laboratory Animal Technology Co., Ltd. • 2. Cell line: The human B-cell lymphoma OCI-LY10 cell line was purchased from Nanjing Cobioer Biosciences Co. Ltd (Cat. No CBP60558).
OCI-LY10 cells were cultured in IMDM medium containing 20% FBS and maintained in a 37° C. incubator with 5% CO2 and saturated humidity. Log phase OCI-LY10 cells were collected, resuspended in IMDM basic medium, and mixed 1:1 with Matrigel. The cell concentration was adjusted to 4×10^7/mL. Under sterile conditions, 0.1 mL of the cell suspension was inoculated subcutaneously into the right flank of SCID mice, with an inoculation concentration of 4×10^6/0.1 mL/mouse.
For the pharmacological experiment, once the tumors reached a certain size, animals with tumors that were either too large, too small, or irregularly shaped were eliminated. Animals with tumor volumes between 167.65 and 231.29 mm^3 were selected. Based on tumor volume, the animals were divided into groups using a random grouping method, with each group consisting of six mice, and the average tumor volume was approximately 201.15 mm^3. The day of grouping was designated as Day 0, and dosing began according to the body weight of the animals. The pharmacological study period lasted for 28 days, with dosing once a day and a 24-hour interval between doses. Intragastric administration was used for administration. During the experiment, the body weight and tumor size of the animals were measured twice a week. Clinical symptoms were observed and recorded daily.
The test compounds were administered at doses of 10 mg/kg, 30 mg/kg, and 100 mg/kg, with a solvent composition of 10% DMSO/10% Solutol/80% H2O. The formula for calculating tumor volume (TV) was: 1/2×a×b^2, where a and b were the measured length and width of the tumor, respectively. The formula for calculating the Tumor Growth Inhibition (TGI) rate was: TGI (%)=[(1−(average tumor volume at the end of administration in a treatment group−average tumor volume at the beginning of administration in this treatment group))/(average tumor volume at the end of treatment in the vehicle control group−average tumor volume at the beginning of treatment in the vehicle control group)]×100%. Relative Tumor Proliferation rate T/C (%): the calculation formula was as follows: T/C %=TRTV/CRTV×100% (TRTV: average RTV of the treatment group; CRTV: average RTV of the negative control group). According to the results of tumor measurement, the relative tumor volume (RTV) was calculated, and the calculation formula was RTV=Vt/V0, where V0 was the tumor volume measured at the time of group administration (i.e. Day 0), VT was the tumor volume at a certain measurement, and TRTV and CRTV were taken from the same day's data.
In this study, experimental data were presented in Mean±SEM.
Statistical analysis was performed using IBM SPSS Statistics software based on the RTV data at the end of the experiment. For comparisons between two groups, a T test was used. For comparisons among three or more groups, one-way ANOVA was utilized. If the variance was homogenous (no significant difference in F value), Tukey's method was applied for analysis. If the variance was heterogeneous (significant difference in F value), the Games-Howell method was used for testing. A p-value of […] was considered statistically significant.

IKZF3 = molecular target: T1, IKZF3 (Homo sapiens, UniProt Q96SW2+Q9UKT9); assay: In Cell Western of IKZF3 protein expression level in MM.1S cells; type: cell-based; conditions: IKZF3, MM.1S cells, 24 hours
T1 construct: host or cells: MM.1S cells
Description: Experimental objective: The experiment aims to assess the degradation effect of the test compounds on IKZF1 and 1KZF3 proteins in MM.1S cells by evaluating the impact of the test compounds on the expression levels of IKZF1 and IZKZF3 proteins in MM.1S cells.
• Cell lines: MMN.1 S cell (sourced from ATCC; Cat. No CRL-2974) • Negative control: 0.100 DMSO.
• 1) Log phase MM.1 S cells were plated in a 96-well plate at 1.2×10^5 cells per well and cultured overnight; • 2) The next day, compounds were added with a starting concentration of 300 nM, diluted threefold across three replicate wells for 10 concentration gradients (including DMSO), and the cells were incubated for 24 hours in an incubator; • 3) The cells were centrifuged, and the supernatant was carefully removed. 150 μL of 4% paraformaldehyde fixative was added along the wall of the wells, avoiding contact with the bottom cells, and the cells were incubated at room temperature for 20 minutes; • 4) Lysis buffer was prepared by mixing 0.5 mL of 10% Triton X-100 with 49.5 mL of PBS until homogenous; • 5) 200 μL of lysis buffer was added along the well walls, again avoiding the bottom cells, and incubated on a shaker at room temperature for 5 minutes; • 6) The wells were washed four times; • 7) 150 μL of Licor […] […]

[2] = 10 mg/kg intragastric once a day
[3] = 30 mg/kg intragastric once a day
[4] = 100 mg/kg intragastric once a day

T1 sequence (Q9UKT9 whole entry): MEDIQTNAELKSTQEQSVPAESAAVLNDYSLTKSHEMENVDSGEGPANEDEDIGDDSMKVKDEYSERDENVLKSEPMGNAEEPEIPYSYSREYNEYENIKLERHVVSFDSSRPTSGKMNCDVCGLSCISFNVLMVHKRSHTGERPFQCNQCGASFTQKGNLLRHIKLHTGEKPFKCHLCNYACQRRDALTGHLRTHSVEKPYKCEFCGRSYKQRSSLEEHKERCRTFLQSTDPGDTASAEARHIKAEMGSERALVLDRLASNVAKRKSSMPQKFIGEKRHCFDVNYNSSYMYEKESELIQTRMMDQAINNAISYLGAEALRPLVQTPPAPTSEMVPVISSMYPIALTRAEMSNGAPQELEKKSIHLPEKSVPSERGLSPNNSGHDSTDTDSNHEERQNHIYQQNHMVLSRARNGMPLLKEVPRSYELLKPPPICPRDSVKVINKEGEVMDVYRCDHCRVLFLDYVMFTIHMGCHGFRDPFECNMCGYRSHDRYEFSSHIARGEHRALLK
T1 sequence (Q96SW2 whole entry): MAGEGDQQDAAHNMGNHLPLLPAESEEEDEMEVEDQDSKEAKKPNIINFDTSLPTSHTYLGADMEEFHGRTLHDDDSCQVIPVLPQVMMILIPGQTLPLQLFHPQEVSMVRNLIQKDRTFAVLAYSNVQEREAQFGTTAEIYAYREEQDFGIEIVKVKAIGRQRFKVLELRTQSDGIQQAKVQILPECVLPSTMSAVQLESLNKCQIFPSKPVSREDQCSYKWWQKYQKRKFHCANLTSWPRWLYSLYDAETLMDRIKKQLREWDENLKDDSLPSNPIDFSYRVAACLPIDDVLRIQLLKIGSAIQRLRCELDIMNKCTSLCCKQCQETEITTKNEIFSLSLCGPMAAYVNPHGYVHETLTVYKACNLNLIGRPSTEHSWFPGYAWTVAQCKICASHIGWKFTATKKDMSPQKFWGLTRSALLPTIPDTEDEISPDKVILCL
T1 sequence (Q16531 whole entry partner): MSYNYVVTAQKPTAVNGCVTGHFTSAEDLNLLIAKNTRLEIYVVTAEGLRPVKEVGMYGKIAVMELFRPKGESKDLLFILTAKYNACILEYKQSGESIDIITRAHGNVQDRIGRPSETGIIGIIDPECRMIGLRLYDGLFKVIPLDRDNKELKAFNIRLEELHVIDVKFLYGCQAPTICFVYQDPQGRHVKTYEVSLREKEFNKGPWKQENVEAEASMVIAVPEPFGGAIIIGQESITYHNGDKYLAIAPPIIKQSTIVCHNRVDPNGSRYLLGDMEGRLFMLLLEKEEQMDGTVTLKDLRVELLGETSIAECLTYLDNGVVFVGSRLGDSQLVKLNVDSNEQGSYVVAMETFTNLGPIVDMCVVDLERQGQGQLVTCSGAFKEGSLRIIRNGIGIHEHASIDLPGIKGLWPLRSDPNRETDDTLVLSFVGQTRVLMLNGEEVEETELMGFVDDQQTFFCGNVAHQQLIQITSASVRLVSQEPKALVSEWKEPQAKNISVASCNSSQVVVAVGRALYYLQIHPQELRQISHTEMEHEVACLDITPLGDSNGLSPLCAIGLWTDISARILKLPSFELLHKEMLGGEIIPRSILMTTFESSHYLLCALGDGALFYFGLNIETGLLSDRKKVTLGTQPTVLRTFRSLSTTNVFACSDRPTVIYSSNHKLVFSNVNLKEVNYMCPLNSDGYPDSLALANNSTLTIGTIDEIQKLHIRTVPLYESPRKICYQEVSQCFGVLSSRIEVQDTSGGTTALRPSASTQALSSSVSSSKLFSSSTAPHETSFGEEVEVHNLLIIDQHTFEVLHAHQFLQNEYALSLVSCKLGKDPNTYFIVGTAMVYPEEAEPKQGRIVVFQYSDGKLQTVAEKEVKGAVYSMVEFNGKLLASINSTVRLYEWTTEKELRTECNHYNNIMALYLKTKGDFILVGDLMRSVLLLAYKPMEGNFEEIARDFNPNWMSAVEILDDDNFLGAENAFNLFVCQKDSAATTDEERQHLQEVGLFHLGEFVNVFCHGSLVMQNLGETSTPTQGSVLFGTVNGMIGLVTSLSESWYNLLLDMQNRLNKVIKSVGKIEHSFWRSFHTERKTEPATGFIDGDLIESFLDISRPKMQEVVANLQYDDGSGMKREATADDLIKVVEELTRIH

SMILES | Tumor volume (Day 0) [1, 2] | T/C (%) (Day 28) [1, 2] | TGI (%) (Day 28) [1, 2] | Tumor volume (Day 28) [1, 2] | Tumor volume (Day 0) [1, 3] | T/C (%) (Day 28) [1, 3] | TGI (%) (Day 28) [1, 3] | Tumor volume (Day 28) [1, 3] | Tumor volume (Day 0) [1, 4] | T/C (%) (Day 28) [1, 4] | TGI (%) (Day 28) [1, 4] | Tumor volume (Day 28) [1, 4] | DC50 (IKZF3) | Dmax (IKZF3; MM1.S, read-out: Maximum degradation rate Dmax)
O=C1CCC(c2noc3ccc4c(NC(=O)CN5CCN(C[C@H]6CC[C@H](n7cc(NC(=O)c8coc(-c9ccnc(NCC%10CC%10)c9)n8)c(C(F)F)n7)CC6)CC5)cccc4c23)C(=O)N1 (some centres unmarked) [Hydrochloride of WX014] | 202.43 mm^3 | 47.40% | 60.43% | 685.61 mm^3 | 199.80 mm^3 | 23.07% | 89.94% | 322.68 mm^3 | 199.75 mm^3 | 12.80% | 100.96% | 188.01 mm^3 |  | 
O=C1CCC(c2noc3ccc4c(NC(=O)C(F)(F)C5CCN(CC6CCC(n7cc(NC(=O)c8coc(-c9ccnc(NCC%10CC%10)c9)n8)c(C(F)F)n7)CC6)CC5)cccc4c23)C(=O)N1 (centres unmarked) [Hydrochloride of WX018] |  |  |  |  |  |  |  |  |  |  |  |  | 8.34 nM | 96.5%
